The source of these data is EP0603160A2, “Compositions for in-situ active compound assembly” (SCRIPPS CLINIC AND RESEARCH FOUNDATION, priority 1986, dated 1988).

Read-outs that look alike come from different tables or passages of the source.

In one series the test system is some tumors. The following applies: on a weight basis; Arnold et al, Proc Natl Acad Sci USA (1979); cited from earlier work.
A further series concerns HeLa cells. As to the kind of experiment: HeLa cell cytotoxicity, trypan blue exclusion. The series is classed as cell-based, human. The following applies: for HeLa cell toxicity: AOG or dodecanedial alone, Figure 5b; for percentage of cells intact: 400 µM, each alone, two hours, Figure 5a. On the procedure:
These cells were grown in suspension in Joklik's median supplemented with calf serum, centrifuged and then taken up into Dulbecco's modified Eagles medium (DMEM) without serum. Cell suspensions containing 2-4 x 10⁶ cell/ml in DMEM containing 1% ethanol were incubated at 37°C, with or without decanal. AOG, or combinations thereof. Cell membrane damage was measured by hand counting of cells using trypan blue exclusion as the criterion.

A further series has as its system S. cerevisiae YP52. Briefly: Growth inhibition of yeast by PC and HP in YPD medium, roller drum. The series is classed as cell-based. The following applies: each alone, concentrations below 2 mM, 20 hours at 30°C in YPD medium. On the procedure: Pyridine-2-carboxaldehyde (PC) and 2-hydrazino-pyridine (HP) are each alone nontoxic to S. cerevisiae YP52 yeast at concentrations below 2 mM when provided over 20 hours at 30°C in YPD medium in a roller drum. However, when supplied together, these compounds are capable of inhibiting the growth of S. cerevisiae YP52 at 30 °C in YPD. When placed together in the medium at concentrations of 1 mM + 1 mM and at 0.5 mM + 0.5 mM. substantial inhibition occurs. The adduct. pyridino-2-carboxaldehyde (2-pyridyl hydrazone) (PCPH) of the formula: [drawing 25] is a chelator and has a structural similarity to 2,2': 6',2'' terpyridine which is a known cytotoxin (McFadyen et al, J Med Chem (1985) 28:1113-1116). The second order rate constant for this reaction is 2 l/mol-sec at 37 °C, pH6, in phosphate-buffered saline.

The test system of the next series is Monilinia sp. As to the kind of experiment: Fungal growth on YPD medium. The series is classed as cell-based. The following applies: 2 mM of either reagent alone. On the procedure: Similar results are obtained using Candida albicans, a human infective agent, as the target organism. […] Also, the growth of Monilinia sp, the causal agent in peach brown rot, is inhibited by the combination of the foregoing reagents, but not by either individually. No growth is observed after four days on YPD medium when 250 µM each of the pyridine-2-carboxaldehyde and 2-hydrazinopyridine are included.

For the next series, the system named is Erythrocytes. As to the kind of experiment: Antidote to self assembly, erythrocyte lysis. The series is classed as cell-based. On the procedure:
In this example, cyclohexanone is used as an antidote to prevent the assembly of AOG plus decanal to produce the biologically active agent DIOG, which was described in a previous example. Erythrocytes, prepared as above, were exposed to 20 µM AOG plus 20 µM decanal.

The subject of a further series is S. typhimurium. As to the kind of experiment: Filter disk growth inhibition on agar LB plates at pH 7.4 and pH 5. The series is classed as cell-based, Salmonella typhimurium. The following applies: 20 nanomoles on filter disk. The source says:
The formation of the foregoing chelate is also effective in inhibiting the growth of Salmonella typhimurium. This inhibition can be tested using agar disks or in culture suspension. The effect of the formation of chelate can be studied in this regard by conducting the experiments at pH 5 and pH 7.4; at pH 5 the formation of the chelate is encouraged while at […] the reaction rate is much slower.
The inhibition was spread between the disks rather than circling each disk as was the case for the PCPH inhibition. Thus, control of pH is a selective factor in controlling the self-assembly of the cytotoxic chelator.

For another series, the system named is human erythrocytes. As to the kind of experiment: Erythrocyte lysis (light scattering, hemoglobin release, cell counts). The series is classed as cell-based. The following applies: for time for which erythrocytes are stable: solutions containing either DAPG or CHD alone. On the procedure:
The putative product shown in Reaction Scheme 1 is evidently cytotoxic, since a suspension of human erythrocytes in a solution containing both CHD and DAPG in phosphate buffered saline is 95% lysed or aggregated within 1-14 hours under physiological conditions (the precise time depending on the concentrations) whereas erythrocytes are stable for at least 24 hours in plain PBS, and also in solutions containing either DAPG or CHD alone. In addition, when erythrocytes are incubated with mixtures of CHD and DAPG, a substantial induction period is observed during which no lysis or aggregation occurs, due to the time lag in formation of the cytotoxic material. Whether lysis or aggregation results depends on relative concentration; excess CHD results in lysis, equimolar concentrations in aggregation. The cytotoxicity may be due to the formation of the polycation, analogous to the known antitumor activity of poly-(L-lysine); Arnold, L. J. Proc. Natl Acad Sci (supra).
For erythrocytes blood was collected and stored with KEDTA at 4°C and erythrocytes prepared within 48 hours by centrifuging three times in phosphate-buffered saline (PBS, pH 7.4). Suspensions containing 3 x 10⁷ cells/ml were prepared in PBS containing 1% EtOH, but no […] cations, and incubated at 37°C with the compounds or mixtures to be tested.
On the other hand, while a mixture of 28 µM AOG and 28 µM decanal (reagent grade, Aldrich Chemical Co.) results in less than 10% lysis within the same 20 minute time frame, as the time of incubation increases, lysis increases also, as indicated by hemoglobin release measured by (1) light absorption of the supernatant at 400 nm. (2) decrease of light scattering by the cells at 700 nm, and (3) direct cell counts using a microscope. […] Suspensions of 3.5 x 10⁷ cells/ml prepared as above in PBS (1% EtOH, no divalent cations, pH 7.4) were incubated at 37°C, and cell lysis was followed by observing the decrease in absorbance at 700 nm. For 0% lysis, A₇₀₀ is 1.0; 0.2 for 100% lysis).
The curves were calculated using a nonlinear least squares fitting algorithm (Arc, H, et al, Statistical Methods (1970) Harper & Row, pp. 100-111) and based on a modified Hill equation (Cantor, C.R. et al, supra) wherein percent hemolysis is calculated as 100% divided by (1+(K/C))^α [formula] . In this equation, K is the median effect concentration, C is the concentration of DIOG (or of decanal and AOG), and α is the Hill constant.

In another series the test system is S cerevisiae. As to the kind of experiment: Yeast growth in YPD medium with AOG and decanal. The series is classed as cell-based. The following applies: 24 hours. On the procedure:
The effect of the combination of AOG and decanal on yeast was also determined. S cerevisiae in YPD medium at cell densities of 10⁵-10⁶ cell/ml used as starting concentrations. When no reagents were added to the medium, the cell density increased about 90 fold in 24 hours. […] When 10 µg/ml decanal plus 44 µg/ml AOG were added in combination, all yeast died after 24 hours.

In series [1] the test system is S. typhimurium strain 14028R. As to the kind of experiment: Suspension culture CFU at pH 5 versus pH 7.4. The following applies: NFZ alone at 10 µM; 20 hours at 37°C in PBS, 1% DMSO. The series is classed as cell-based. On the procedure: This selectivity was also shown in suspension cultures when S. typhimurium strain 14028R was incubated for 20 hours at 37°C in PBS at either pH 5 or pH 7.4 containing 1% DMSO. When no drugs were added, the culture contained 8 x 10⁶ colony forming units (CFU)/ml for pH 5 and 1.5 x 10⁷ CFU/ml for pH 7.4. The self assembling drugs tested in this instance were semicarbazide (SC), […] (NFA) and their reaction product nitrofurazone (NFZ). Either the […] product, or mixtures of various concentrations of the precursors NC + NA were added after inoculation of the medium. While the maximum toxic selectivity (the ratio of CFU/ml at pH 7.4 as compared to CFU/ml at pH 5) observed for, NFZ alone, at 10 µM was about 100, a mixture of 1500 µM SC + 7 µM NFA gave a toxic selectivity ratio of over 8000.

The test system of series [2] is Ox blood erythrocytes. Briefly: Erythrocyte killing with or without 1% serum, light scattering. The series is classed as cell-based. The following applies: Bos taurus, Erythrocyte, 1 h, pH 6.6; for mortality at 448 µM: Decanal 0, AOG maintained at 448 µM according to the text (Table 4). On the procedure:
(§1) Ox blood erythrocytes were incubated for one hour in PBS at pH 6.6 in the presence or absence of 1% serum at 37°C. […] However, at 4-16 µM DIOG, the percentage of cells killed increased from 4.3 to 60.9. On the other hand, in the absence of serum, 7.2.% cells were killed even without the addition of DIOG, and a steady increase in killing occurred as the DIOG concentration increased, reaching 100% of cells killed at 8 µM.
The AOG concentration was maintained at a high level (448 µM) and the decanal concentration varied from 0-16 µM corresponding the previous DIOG concentration range. In this protocol, similar results were obtained for cells incubated in the absence of serum, but in the presence of 1% serum the curve was slightly displaced so that the cells appeared more protected as shown in Table 4.

For series [3], the system named is Ox blood erythrocytes. Briefly: Erythrocyte killing with or without 1% serum, hemoglobin release. The series is classed as cell-based. The following applies: Bos taurus, 1 h, read-out: cell killing measured by hemaglobin release, 1% Serum. As for the experimental part: as §1
The subject of series [4] is Ox blood erythrocytes. As to the kind of experiment: Erythrocyte killing with or without 1% serum, light scattering. The following applies: Bos taurus, 1 h, pH 6.6, 896 µM AOG, Decanal 0µM (Table 4), read-out: % cells killed (0% serum). The series is classed as cell-based.
The conditions of series [5]: J Pharm Sci (1971) 60:1128-1131; cited from earlier work.

Turning to “poly-(L-lysine) [poly-(L-lysine) of Mr 3 kd]”, the “toxicity relative to poly-(L-lysine) having Mr of 70 kd” value with some tumors was “less than 1/20”.

Regarding `O=CCCCCCCCCCCC=O` [dodecanedial], in the series with HeLa cells, the HeLa cell toxicity result was “neither is very toxic alone”.

Consider `O=Cc1ccccn1` [PC, Pyridine-2-carboxaldehyde], for which, in the series on S. cerevisiae YP52, the “toxicity to S. cerevisiae YP52” value is given as “nontoxic”. The “growth of Monilinia sp” value in the series on Monilinia sp is given as “substantial growth”.

For `O=C1CCCCC1` [cyclohexanone], the lysis result in the series on Erythrocytes (20 mM cyclohexanone plus 10 µM AOG alone, no decanal) was “do not give lysis”; in the series on Erythrocytes (cells first exposed to 20 µM AOG for 2 hours, then 20 µM decanal and 20 mM cyclohexanone), “Extensive lysis”; in the series on Erythrocytes (pretreatment 2 hours with 20 mM cyclohexanone alone, then 20 µM AOG plus 20 µM decanal), “extensive lysis”; in the series with Erythrocytes (pretreatment 2 hours with 20 mM cyclohexanone plus 20 µM AOG, then 20 µM decanal added), “only slow lysis”.

For `C(=NNc1ccccn1)c1ccccn1` [PCPH, pyridino-2-carboxaldehyde (2-pyridyl hydrazone)], the “growth inhibition of S. typhimurium” value with S. typhimurium (pH 5) and in the series with S. typhimurium (pH 7.4) was “inhibited growth” throughout.

Consider `CCCCCCCCCC=O` [decanal], for which the lysis result with human erythrocytes (28 µM or 80 µM decanal alone, after more than 400 minutes, Figure 2) was “less than 5%”. The “percentage of cells intact” value in the series with HeLa cells is “considerably less dramatic decreases”. The “increase in cell density” value in the series on S cerevisiae (20 µg/ml decanal) came out at 11 fold.

In the series with human erythrocytes (Homo sapiens, Erythrocyte, pH 7.4, 60 mM CHD alone, after 24 hours), `O=C1CCC(=O)CC1` [CHD, cyclohexane-1,4-dione] displayed a hemolysis at 60000 µM of 18%. For the same compound, the “time for which erythrocytes are stable” value with human erythrocytes was “at least 24 hours”.

Consider `NNc1ccccn1` [HP, 2-hydrazino-pyridine], for which, in the series on S. cerevisiae YP52, the “toxicity to S. cerevisiae YP52” value is recorded as “nontoxic”. For the same compound, the “growth of Monilinia sp” value with Monilinia sp is on record as “substantial growth”.

In the series on human erythrocytes (Homo sapiens, Erythrocyte, pH 7.4, 3 mM DAPG alone, after 24 hours), `NNC(=Nc1ccccc1)NN` [DAPG, 1,2-diamino-3-phenyl guanididium iodide] had a hemolysis at 3000 µM of 18%. For the same compound, the “time for which erythrocytes are stable” value in the series with human erythrocytes is “at least 24 hours”.

`NC(=O)N/N=C/c1ccc([N+](=O)[O-])o1` [NFZ, nitrofurazone]: the “maximum toxic selectivity (the ratio of CFU/ml at pH 7.4 as compared to CFU/ml at pH 5)” value in series [1] is recorded as “about 100”.

For `O=CCCCCCCCCC=O` [DDD, decanedialdehyde, CHO(CH₂)₈CHO], the lysis result with human erythrocytes (either alone at 100 µM) was “did not result in any observable lysis”.

In turn, `CCCCCCCCNC(=N)NN` [AOG, N-amino-N'-1-octyl guanidine] yielded a hemolysis at 28 µM in the series on human erythrocytes (Homo sapiens, Erythrocyte, 400 min, pH 7.4, 28 µM, 100 µM or 200 µM AOG alone, after more than 400 minutes, Figure 2) of under 5%. Further, the lysis entry with human erythrocytes (either alone at 100 µM) is listed as “did not result in any observable lysis”. In addition, the “percentage of cells intact” value in the series on HeLa cells is on record as “considerably less dramatic decreases”. Moreover, the HeLa cell toxicity entry with HeLa cells is given as “neither is very toxic alone”. In the series with S cerevisiae (88 µg/ml AOG), the “increase in cell density” value is listed as “threefold increase”. For the same compound, the mortality at 896 µM in the series on Ox blood erythrocytes [2] (896 µM AOG, Decanal 0µM (Table 4), read-out: % cells killed (1% serum)) turned out to be 1.3%; with Ox blood erythrocytes [4], 6.4%. In addition, the mortality at 448 µM in the series on Ox blood erythrocytes [2] (read-out: % cells killed (0% serum)) and with Ox blood erythrocytes [2] (read-out: % cells killed (1% serum)) was 0% throughout. The hemolysis at 896 µM in the series on Ox blood erythrocytes [3] (pH 6.6, 896 µM AOG, Decanal Concentration 0 (Table 5)) worked out at 0%. Also, in the series on Ox blood erythrocytes [3] (pH 6.6, Decanal Concentration 0, 448 µM AOG according to the text (Table 5), comma separates duplicates), the hemolysis at 448 µM came out at 0%.

`CN(Cc1cnc2nc(N)nc(N)c2n1)c1ccc(C(=O)N[C@@H](CCC(=O)O)C(=O)O)cc1` [methotrexate]: in series [5], the “half-life of the drug in serum” value is listed as “about 2 hours”.
